Test results reported in US20100280010A1, “CHEMICAL COMPOUNDS” (priority 2006, published 2010).

Tested on: HIV-1 (Ba-L or IIIB) infection of HOS cell line (expressing hCXCR4/hCCR5/hCD4/pHIV-LTR-luciferase)
Experiment: HOS HIV-1 Infectivity Assay
Assay type: cell-based
Conditions: Human immunodeficiency virus 1, HOS, virus strain not given, read-out: Activity Level
Method: Compounds were profiled against two HIV-1 viruses, the M-tropic (CCR5 utilizing) Ba-L strain and the T-tropic (CXCR4 utilizing) IIIB strain. Ba-L was propagated in either peripheral blood lymphocytes or SupT1/CCR5+/CXCR4+ cells. IIIB was propagated in peripheral blood lymphocytes. Compounds were tested for their ability to block infection of the HOS cell line (expressing hCXCR4/hCCR5/hCD4/pHIV-LTR-luciferase) by either HIV-1 Ba-L or HIV-1 IIIB. Compound cytotoxicity was also examined in the absence of virus addition.
HOS cells (expressing hCXCR4/hCCR5/hCD4/pHIV-LTR-luciferase) were harvested and diluted in Dulbeccos modified Eagles media supplemented with 2% FCS to a concentration of 120,000 cells/ml. The cells were plated into 96-well plates (50 μl per well) and the plates were placed in a tissue culture incubator ([…]; 5% CO2195% air) for a period of 24 h.
Subsequently, 50 μl of the desired drug solution (2 times the final concentration) was added to each well and the plates were returned to the tissue culture incubator (370° C.; 5% CO2/95% air) for 1 h. Following this incubation, 60 μl of diluted virus (4 times the final concentration) was added to 60 μl of 2× the final desired concentration of the compound and 100 μl of this compound/virus mix was added to each well (approximately 2 million RLU per well of virus). The plates were returned to the tissue culture incubator (370° C.; 5% CO2/95% air) and were incubated for a further 96 h.
Following this incubation the endpoint for the virally infected cultures was quantified following addition of Steady-Glo Luciferase assay system reagent (Promega, Madison, Wis.). Cell viability or non-infected cultures was measured using a CellTiter-Glo luminescent cell viability assay system (Promega, Madison, Wis.). All luminescent readouts are performed on a Topcount luminescence detector (Packard, Meridien, Conn.).

**Q.** For `CC(C)N(Cc1nc2cccc(N3CCC(N(C)C)CC3)n2c1C(N)=O)[C@H]1CCCc2cccnc21` [Example 71, 5-[4-(dimethylamino)-1-piperidinyl]-2-({(1-methylethyl)[(8S)-5,6,7,8-tetrahydro-8-quinolinyl]amino}methyl)imidazo[1,2-a]pyridine-3-carboxamide], which IC50 is on record?
**A.** Its IC50 is < 0.1 µM.

**Q.** With `CN(C)C1CCN(c2cccc3nc(CN(C)[C@H]4CCCc5cccnc54)c(C#N)n23)CC1` [Example 58, 5-[4-(dimethylamino)-1-piperidinyl]-2-({methyl[(8S)-5,6,7,8-tetrahydro-8-quinolinyl]amino}methyl)imidazo[1,2-a]pyridine-3-carbonitrile] as the compound, how does the IC50 read?
**A.** Its IC50 is < 0.1 µM.

**Q.** `CCCN(Cc1nc2cccc(N3CCN(C(C)C)CC3)n2c1Cl)[C@H]1CCCc2cccnc21` [Example 85, (8S)—N-({3-Chloro-5-[4-(1-methylethyl)-1-piperazinyl]imidazo[1,2-a]pyridin-2-yl}methyl)-N-propyl-5,6,7,8-tetrahydro-8-quinolinamine] was tested. Which IC50 did it give?
**A.** Its IC50 is < 0.1 µM.

**Q.** How did the IC50 turn out when `CN1CCN(c2cccc3nc(CN(C)[C@H]4CCCc5cccnc54)c(Br)n23)CC1` [Example 16, (8S)—N-{[3-Bromo-5-(4-methyl-1-piperazinyl)imidazo[1,2-a]pyridin-2-yl]methyl}-N-methyl-5,6,7,8-tetrahydro-8-quinolinamine] was run?
**A.** Its IC50 is < 0.1 µM.

**Q.** For `CN(Cc1nc2cccc(N3CCN4CCC[C@H]4C3)n2c1Cl)[C@H]1CCCc2cccnc21` [Example 81, (8S)—N-({3-Chloro-5-[(8aS)-hexahydropyrrolo[1,2-a]pyrazin-2(1H)-yl]imidazo[1,2-a]pyridin-2-yl}methyl)-N-methyl-5,6,7,8-tetrahydro-8-quinolinamine], which IC50 is on record?
**A.** The IC50 was < 0.1 µM.

**Q.** Which IC50 does the source give for `CC(C)N1CCN(c2cccc3nc(CN(C)[C@H]4CCCc5cccnc54)c(Cl)n23)CC1` [Example 80, (8S)—N-({3-Chloro-5-[4-(1-methylethyl)-1-piperazinyl]imidazo[1,2-a]pyridin-2-yl}methyl)-N-methyl-5,6,7,8-tetrahydro-8-quinolinamine] here?
**A.** Its IC50 is < 0.1 µM.

**Q.** For `CCN(Cc1nc2cccc(N3CC[C@@H](N(C)C)C3)n2c1C#N)[C@H]1CCCc2cccnc21` [Example 42, 5-[(3R)-3-(Dimethylamino)-1-pyrrolidinyl]-2-({ethyl[(8S)-5,6,7,8-tetrahydro-8-quinolinyl]amino}methyl)imidazo[1,2-a]pyridine-3-carbonitrile], which IC50 is on record?
**A.** Its IC50 is < 0.1 µM.

**Q.** Which IC50 does the source give for `C[C@H]1CN(c2cccc3nc(CN(C)[C@H]4CCCc5cccnc54)c(Cl)n23)CCN1` [Example 78, (8S)—N-({3-Chloro-5-[(3S)-3-methyl-1-piperazinyl]imidazo[1,2-a]pyridin-2-yl}methyl)-N-methyl-5,6,7,8-tetrahydro-8-quinolinamine] here?
**A.** The IC50 was < 0.1 µM.

**Q.** Which IC50 does the source give for `CCCN(Cc1nc2cccc(N3CCN(CC)CC3)n2c1Cl)[C@H]1CCCc2cccnc21` [Example 83, (8S)—N-{[3-Chloro-5-(4-ethyl-1-piperazinyl)imidazo[1,2-a]pyridin-2-yl]methyl}-N-propyl-5,6,7,8-tetrahydro-8-quinolinamine] here?
**A.** The IC50 was < 0.1 µM.

**Q.** `CCN(Cc1nc2cccc(N3CCC(N(C)C)CC3)n2c1C#N)[C@H]1CCCc2cccnc21` [Example 62, 5-[4-(dimethylamino)-1-piperidinyl]-2-({ethyl[(8S)-5,6,7,8-tetrahydro-8-quinolinyl]amino}methyl)imidazo[1,2-a]pyridine-3-carbonitrile] was tested. Which IC50 did it give?
**A.** The IC50 was < 0.1 µM.

**Q.** How did the IC50 turn out when `CN1CCN(c2cccc3nc(CN(CC4CC4)[C@H]4CCCc5cccnc54)c(C#N)n23)CC1` [Example 33, 2-({(Cyclopropylmethyl)[(8S)-5,6,7,8-tetrahydro-8-quinolinyl]amino}methyl)-5-(4-methyl-1-piperazinyl)imidazo[1,2-a]pyridine-3-carbonitrile] was run?
**A.** Its IC50 is < 0.1 µM.

**Q.** `CCCN(Cc1nc2cccc(N3CCN(C)CC3)n2c1C(N)=O)[C@H]1CCCc2cccnc21` [Example 26, 5-(4-Methyl-1-piperazinyl)-2-({propyl[(8S)-5,6,7,8-tetrahydro-8-quinolinyl]amino}methyl)imidazo[1,2-a]pyridine-3-carboxamide] was tested. Which IC50 did it give?
**A.** The IC50 was < 0.1 µM.

**Q.** For `CCN(Cc1nc2cccc(N3CCN(C)CC3)n2c1C#N)[C@H]1CCCc2cccnc21` [Example 21, 2-({Ethyl[(8S)-5,6,7,8-tetrahydro-8-quinolinyl]amino}methyl)-5-(4-methyl-1-piperazinyl)imidazo[1,2-a]pyridine-3-carbonitrile], which IC50 is on record?
**A.** The IC50 was < 0.1 µM.

**Q.** Which IC50 does the source give for `CN(C)[C@@H]1CCN(c2cccc3nc(CN(C)[C@H]4CCCc5cccnc54)c(C(N)=O)n23)C1` [Example 39, 5-[(3R)-3-(Dimethylamino)-1-pyrrolidinyl]-2-({methyl[(8S)-5,6,7,8-tetrahydro-8-quinolinyl]amino}methyl)imidazo[1,2-a]pyridine-3-carboxamide] here?
**A.** Its IC50 is < 0.1 µM.

**Q.** Which IC50 does the source give for `CN1CCCN(c2cccc3nc(CN(C)[C@H]4CCCc5cccnc54)c(Cl)n23)CC1` [Example 76, (8S)—N-{[3-Chloro-5-(4-methylhexahydro-1H-1,4-diazepin-1-yl)imidazo[1,2-a]pyridin-2-yl]methyl}-N-methyl-5,6,7,8-tetrahydro-8-quinolinamine] here?
**A.** Its IC50 is < 0.1 µM.

**Q.** How did the IC50 turn out when `C[C@H]1CN(c2cccc3nc(CN(C)[C@H]4CCCc5cccnc54)c(Cl)n23)CCN1C` [Example 79, (8S)—N-([3-Chloro-5-[(3S)-3,4-dimethyl-1-piperazinyl]imidazo[1,2-a]pyridin-2-yl]methyl)-N-methyl-5,6,7,8-tetrahydro-8-quinolinamine] was run?
**A.** Its IC50 is < 0.1 µM.

**Q.** How did the IC50 turn out when `CN1CCN(c2cccc3nc(CN(C)[C@H]4CCCc5cccnc54)c(Cl)n23)CC1` [Example 72, (8S)—N-{[3-Chloro-5-(4-methyl-1-piperazinyl)imidazo[1,2-a]pyridin-2-yl]methyl}-N-methyl-5,6,7,8-tetrahydro-8-quinolinamine] was run?
**A.** The IC50 was < 0.1 µM.

**Q.** How did the IC50 turn out when `CN1CCN(c2cccc3nc(CN(C)[C@H]4CCCc5cccnc54)c(C#N)n23)CC1` [Example 17, 5-(4-Methyl-1-piperazinyl)-2-({methyl[(8S)-5,6,7,8-tetrahydro-8-quinolinyl]amino}methyl)imidazo[1,2-a]pyridine-3-carbonitrile] was run?
**A.** The IC50 was < 0.1 µM.

**Q.** For `CN(C)CCN(C)c1cccc2nc(CN(C)[C@H]3CCCc4cccnc43)c(Cl)n12` [Example 77, N-[3-Chloro-2-({methyl[(8S)-5,6,7,8-tetrahydro-8-quinolinyl]amino}methyl)imidazo[1,2-a]pyridin-5-yl]-N,N′,N′-trimethyl-1,2-ethanediamine], which IC50 is on record?
**A.** The IC50 was < 0.1 µM.

**Q.** `CCCN(Cc1nc2cccc(N3CCC(N(C)C)CC3)n2c1Cl)[C@H]1CCCc2cccnc21` [Example 87, (8S)—N-({3-Chloro-5-[4-(dimethylamino)-1-piperidinyl]imidazo[1,2-a]pyridin-2-yl}methyl)-N-propyl-5,6,7,8-tetrahydro-8-quinolinamine] was tested. Which IC50 did it give?
**A.** The IC50 was < 0.1 µM.

**Q.** `CC(C)N(Cc1nc2cccc(N3CCC(N(C)C)CC3)n2c1C#N)[C@H]1CCCc2cccnc21` [Example 70, 5-[4-(dimethylamino)-1-piperidinyl]-2-({(1-methylethyl)[(8S)-5,6,7,8-tetrahydro-8-quinolinyl]amino}methyl)imidazo[1,2-a]pyridine-3-carbonitrile] was tested. Which IC50 did it give?
**A.** The IC50 was < 0.1 µM.

**Q.** For `CCCN(Cc1nc2cccc(N3CCCN(C)CC3)n2c1Cl)[C@H]1CCCc2cccnc21` [Example 84, (8S)—N-{[3-Chloro-5-(4-methylhexahydro-1H-1,4-diazepin-1-yl)imidazo[1,2-a]pyridin-2-yl]methyl}-N-propyl-5,6,7,8-tetrahydro-8-quinolinamine], which IC50 is on record?
**A.** The IC50 was < 0.1 µM.

**Q.** `CCCN(Cc1nc2cccc(N(C)CCN(C)C)n2c1Cl)[C@H]1CCCc2cccnc21` [Example 89, N-[3-Chloro-2-({propyl[(8S)-5,6,7,8-tetrahydro-8-Quinolinyl]amino}methyl)imidazo[1,2-a]pyridin-5-yl]-N,N′,N′-trimethyl-1,2-ethanediamine] was tested. Which IC50 did it give?
**A.** Its IC50 is < 0.1 µM.

**Q.** Which IC50 does the source give for `CCCN(Cc1nc2cccc(N3CC[C@@H](N(C)C)C3)n2c1C(N)=O)[C@H]1CCCc2cccnc21` [Example 47, 5-[(3R)-3-(Dimethylamino)-1-pyrrolidinyl]-2-({propyl[(8S)-5,6,7,8-tetrahydro-8-quinolinyl]amino}methyl)imidazo[1,2-a]pyridine-3-carboxamide] here?
**A.** Its IC50 is < 0.1 µM.

**Q.** Which IC50 does the source give for `CCCN(Cc1nc2cccc(N3CCC(N(C)C)CC3)n2c1C#N)[C@H]1CCCc2cccnc21` [Example 66, 5-[4-(dimethylamino)-1-piperidinyl]-2-({propyl[(8S)-5,6,7,8-tetrahydro-8-quinolinyl]amino}methyl)imidazo[1,2-a]pyridine-3-carbonitrile] here?
**A.** Its IC50 is < 0.1 µM.

**Q.** `CC(C)N(Cc1nc2cccc(N3CC[C@@H](N(C)C)C3)n2c1C(N)=O)[C@H]1CCCc2cccnc21` [Example 51, 5-[(3R)-3-(Dimethylamino)-1-pyrrolidinyl]-2-({(1-methylethyl)[(8S)-5,6,7,8-tetrahydro-8-quinolinyl]amino}methyl)imidazo[1,2-a]pyridine-3-carboxamide] was tested. Which IC50 did it give?
**A.** Its IC50 is < 0.1 µM.
